Consider one compound from PMC6045899 (International Journal of Nanomedicine, 2018).

Molecules are shown by their SMILES.

Series [1] can be described thus: In vivo pharmacokinetics after iv administration in AMI rats. The following applies: plasma concentration–time profile.
For series [2], the system named is AMI rats. More on the design: species or system Sprague Dawley rats. The following applies: rat, in vivo, 50 mg/kg.
Series [3] concerns PC cells (primary cardiac cells). In words: In vitro cytotoxicity, MTT bioassay. It counts as cell-based, Wistar rats. To be noted: 1–200 μM, 24 h.

On to `Cc1coc2c1C(=O)C(=O)c1c-2ccc2c1CCCC2(C)C` [Free TN, tanshinone IIA], for which the “time within which cleared from the circulation” value in series [1] is given as not above 6 h. Further, the “infarct size (percentage of whole size of the left ventricle)” value in series [2] is recorded as 51%±1.8%. Further, the “in vitro cytotoxicity (in words)” value in series [3] was “obvious higher cytotoxicity than the nanocarriers in high concentrations (100 and 200 μM)”.
